From patent US11795177B2, “Substituted quinoline analogs as aldehyde dehydrogenase 1A1 (ALDH1A1) inhibitors” (THE UNITED STATES OF AMERICA, AS REPRESENTED BY THE …, priority 2017, dated 2023)
Counter-ions that a name gives are not always drawn.

Legend:
[1] = target: T1, ALDH1A1 enzyme (Homo sapiens, UniProt P00352); assay: ALDH1A1 enzymatic assay (in vitro); format: biochemical; conditions: ALDH1A1 enzyme 20 nM, NAD+ 1 mM, propionaldehyde 80 μM; read-out: ALDH1A1 IC50
T1 sequence (P00352 1-501): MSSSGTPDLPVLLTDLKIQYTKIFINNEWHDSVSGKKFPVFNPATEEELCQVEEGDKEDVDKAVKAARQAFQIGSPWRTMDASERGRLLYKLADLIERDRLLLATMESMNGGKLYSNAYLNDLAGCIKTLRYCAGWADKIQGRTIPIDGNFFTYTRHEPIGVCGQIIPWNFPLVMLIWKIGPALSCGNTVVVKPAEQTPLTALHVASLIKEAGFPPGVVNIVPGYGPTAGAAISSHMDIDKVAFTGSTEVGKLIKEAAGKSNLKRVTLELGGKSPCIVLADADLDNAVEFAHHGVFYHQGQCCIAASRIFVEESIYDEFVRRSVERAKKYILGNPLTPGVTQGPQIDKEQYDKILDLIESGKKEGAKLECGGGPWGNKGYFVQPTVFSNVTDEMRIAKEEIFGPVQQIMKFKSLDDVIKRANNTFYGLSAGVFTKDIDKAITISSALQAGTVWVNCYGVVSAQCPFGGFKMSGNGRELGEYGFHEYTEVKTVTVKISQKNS
Experimental: Example 358. ALDH1A1 Enzymatic Assay (In Vitro Assay)
3 μL of ALDH1A1 enzyme (final concentration 20 nM) or assay buffer (100 mM HEPES pH 7.5 with 0.01% Tween 20) were dispensed into a 1,536-well solid-bottom black plate (Greiner Bio One, Monroe, N.C.) followed by pin-tool transfer (23 nL) of candidate inhibitors (final concentration range 968 pM to 57.2 μM) and control (Bay 11-7085, final concentration range 1.31 nM to 2.86 μM). Samples were incubated (RT, protected from light) for 15 minutes followed by a 1 μL substrate addition of NAD^+ and Propionaldehyde (final concentrations of 1 mM and 80 μM, respectively). Plates were centrifuged at 1,000 rpm for 15 seconds, then read in kinetic mode on a ViewLux High-throughput CCD imager (Perkin-Elmer) equipped with standard UV fluorescence optics (340 nm excitation, 450 nm emission) for 10 minutes. The change in fluorescence intensity over the 10-minute reaction period was normalized against no-inhibitor and no-enzyme controls and the resulting percent inhibition data were fitted for biological activity.

[2] = system: MIA PaCa-2 cells; assay: MIA PaCa2 cell-based assay (1,536-well high-content imaging ALDEFLUOR assay); set-up: species or system human; conditions: Homo sapiens, 0.5 h, ALDEFLUOR BAAA substrate 500 nM, 30 minutes
Summary of the method: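 MIA PaCa-2 cells (1,000/well), plated overnight, given BAAA substrate (500 nM) plus Hoechst 33342 (0.5 nM), then compound (16-point, 1.4 nM–47.8 μM final; 0.5% DMSO). After 30 min at 37° C, ALDH activity imaged by high-content microscopy as BAA-retaining (FITC) cells versus Hoechst-stained nuclei.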

## COc1ccc2ncc(C(=O)N3CCC(OC)CC3)c(N3CCC4(CC3)OCCO4)c2c1 [Example 2, (6-methoxy-4-(1,4-dioxa-8-azaspiro[4.5]decan-8-yl)quinolin-3-yl)(4-methoxypiperidin-1-yl)methanone, TFA]
[1]
  IC50: < 500 nM
[2]
  IC50: 1000 to 10000 nM

## COc1ccc2ncc(C(=O)N3CCC(C(F)(F)F)CC3)c(N3CCC4(CC3)OCCO4)c2c1 [Example 12, (6-methoxy-4-(1,4-dioxa-8-azaspiro[4.5]decan-8-yl)quinolin-3-yl)(4-(trifluoromethyl)piperidin-1-yl)methanone, TFA]
[1]
  IC50: < 500 nM
[2]
  IC50: 1000 to 10000 nM

## COc1ccc2c(N3CCC(C)(C#N)CC3)c(C(=O)N3CCN(S(C)(=O)=O)CC3)cnc2c1 [Example 105, 1-(7-methoxy-3-(4-(methylsulfonyl)piperazine-1-carbonyl)quinolin-4-yl)-4-methylpiperidine-4-carbonitrile]
[1]
  IC50: < 500 nM
[2]
  IC50: 1000 to 10000 nM

## CCS(=O)(=O)N1CCN(C(=O)c2cnc3sccc3c2N2CCC(C)(C#N)CC2)CC1 [Example 218, 1-(5-(4-(ethylsulfonyl)piperazine-1-carbonyl)thieno[2,3-b]pyridin-4-yl)-4-methylpiperidine-4-carbonitrile]
[1]
  IC50: < 500 nM
[2]
  IC50: 1000 to 10000 nM

## C[C@@H]1CN(C(=O)C2CC2)CCN1C(=O)c1cnc2ccc(F)cc2c1N1CCC(C)(C#N)CC1 [Example 239, (R)-1-(3-(4-(cyclopropanecarbonyl)-2-methylpiperazine-1-carbonyl)-6-fluoroquinolin-4-yl)-4-methylpiperidine-4-carbonitrile]
[1]
  IC50: < 500 nM
[2]
  IC50: 1000 to 10000 nM

## C[C@H]1CN(C(=O)C2CC2)CCN1C(=O)c1cnc2ccc(F)cc2c1N1CCC(C)(C#N)CC1 [Example 238, (s)-1-(3-(4-(cyclopropanecarbonyl)-2-methylpiperazine-1-carbonyl)-6-fluoroquinolin-4-yl)-4-methylpiperidine-4-carbonitrile]
[1]
  IC50: 1000 to 10000 nM
[2]
  IC50: > 10000 nM

## COc1cc2ncc(C(=O)N3CCN(S(C)(=O)=O)CC3)c(N3CCC4(CC3)OCCO4)c2cc1OC [Example 130, (6,7-dimethoxy-4-(1,4-dioxa-8-azaspiro[4.5]decan-8-yl)quinolin-3-yl)(4-(methylsulfonyl)piperazin-1-yl)methanone]
[1]
  IC50: < 500 nM
[2]
  IC50: 1000 to 10000 nM

## CN(C)C(=O)N1CCN(C(=O)c2cnc3ccc(Cl)cc3c2-c2ccc(C3(C#N)CC3)cc2)CC1 [Example 296, 4-(6-chloro-4-(4-(1-cyanocyclopropyl)phenyl)quinoline-3-carbonyl)-N,N-dimethylpiperazine-1-carboxamide]
[1]
  IC50: < 500 nM
[2]
  IC50: < 500 nM

## COc1ccc2ncc(C(=O)N3CCN(C(=O)C4CC4)CC3)c(N3CCC(C(F)(F)F)CC3)c2c1 [Example 28, (4-(cyclopropanecarbonyl)piperazin-1-yl)(6-methoxy-4-(4-(trifluoromethyl)piperidin-1-yl)quinolin-3-yl)methanone]
[1]
  IC50: 1000 to 10000 nM
[2]
  IC50: > 10000 nM

## CS(=O)(=O)N1CCN(C(=O)c2cnc3ccc(F)cc3c2N2CCC(CC#N)CC2)CC1 [Example 214, 2-(1-(6-fluoro-3-(4-(methylsulfonyl)piperazine-1-carbonyl)quinolin-4-yl)piperidin-4-yl)acetonitrile]
[1]
  IC50: 1000 to 10000 nM
[2]
  IC50: > 10000 nM

## N#CC1(c2ccccc2)CCN(c2c(C(=O)N3CCC(O)CC3)cnc3ccc(F)cc23)CC1 [Cpd. 331, 1-(6-fluoro-3-(4-hydroxypiperidine-1-carbonyl)quinolin-4-yl)-4-phenylpiperidine-4-carbonitrile]
[1]
  IC50: < 500 nM
[2]
  IC50: 500 to 1000 nM

## COc1cc2ncc(C(=O)N3CCN(S(C)(=O)=O)CC3)c(N3CCC(C)(C#N)CC3)c2cc1OC [Example 113, 1-(6,7-dimethoxy-3-(4-(methylsulfonyl)piperazine-1-carbonyl)quinolin-4-yl)-4-methylpiperidine-4-carbonitrile]
[1]
  IC50: < 500 nM
[2]
  IC50: 1000 to 10000 nM

## N#CC1(c2ccc(-c3c(C(=O)N[C@H]4CC[C@H](O)CC4)cnc4ccc(F)cc34)cc2)CC1 [Cpd. 338, 4-(4-(1-cyanocyclopropyl)phenyl)-6-fluoro-N-((1R,4R)-4-hydroxycyclohexyl)quinoline-3-carboxamide]
[1]
  IC50: < 500 nM
[2]
  IC50: < 500 nM

## CS(=O)(=O)C1CCN(C(=O)c2cnc3ccc(Cl)cc3c2-c2ccc(C3(C#N)CC3)cc2)CC1 [Example 295, 1-(4-(6-chloro-3-(4-(methylsulfonyl)piperidine-1-carbonyl)quinolin-4-yl)phenyl)cyclopropanecarbonitrile]
[1]
  IC50: < 500 nM
[2]
  IC50: < 500 nM

## COc1c(F)cc2c(N3CCC4(CC3)OCCO4)c(C(=O)N3CCN(S(C)(=O)=O)CC3)cnc2c1F [Example 133, (6,8-difluoro-7-methoxy-4-(1,4-dioxa-8-azaspiro[4.5]decan-8-yl)quinolin-3-yl)(4-(methylsulfonyl)piperazin-1-yl)methanone]
[1]
  IC50: < 500 nM
[2]
  IC50: 1000 to 10000 nM

## COc1ccc2ncc(C(=O)N3CCN(C(=O)C(C)C)CC3)c(N3CCC4(CC3)OCCO4)c2c1 [Example 5, 1-(4-(6-methoxy-4-(1,4-dioxa-8-azaspiro[4.5]decan-8-yl)quinoline-3-carbonyl)piperazin-1-yl)-2-methylpropan-1-one, TFA]
[1]
  IC50: < 500 nM
[2]
  IC50: > 10000 nM

## COc1ccc2ncc(C(=O)N3CCN(C(=O)C4CC4)CC3)c(-n3cc(C)cn3)c2c1 [Example 35, (4-(cyclopropanecarbonyl)piperazin-1-yl)(6-methoxy-4-(4-methyl-1H-pyrazol-1-yl)quinolin-3-yl)methanone]
[1]
  IC50: > 10000 nM

## CS(=O)(=O)N1CCN(C(=O)c2ccc3ccccc3c2-c2ccc(C3(C#N)CC3)cc2)CC1 [Example 300, 1-(4-(2-(4-(methylsulfonyl)piperazine-1-carbonyl)naphthalen-1-yl)phenyl)cyclopropanecarbonitrile]
[1]
  IC50: < 500 nM
[2]
  IC50: < 500 nM

## CN(C)S(=O)(=O)N1CCN(C(=O)c2cnc3c(F)cc(F)cc3c2N2CCC3(CC2)OCCO3)CC1 [Example 162, 4-(6,8-difluoro-4-(1,4-dioxa-8-azaspiro[4.5]decan-8-yl)quinoline-3-carbonyl)-N,N-dimethylpiperazine-1-sulfonamide]
[1]
  IC50: < 500 nM
[2]
  IC50: 500 to 1000 nM

## O=C(c1cnc2c(F)cc(F)cc2c1N1CCC2(CC1)OCCO2)N1CCN(S(=O)(=O)N2CCCC2)CC1 [Example 163, (6,8-difluoro-4-(1,4-dioxa-8-azaspiro[4.5]decan-8-yl)quinolin-3-yl)(4-(pyrrolidin-1-ylsulfonyl)piperazin-1-yl)methanone]
[1]
  IC50: < 500 nM
[2]
  IC50: > 10000 nM

## COc1ccc2ncc(C(=O)NC3CCN(C)CC3)c(N3CCC4(CC3)OCCO4)c2c1 [Example 16, 6-methoxy-N-(1-methylpiperidin-4-yl)-4-(1,4-dioxa-8-azaspiro[4.5]decan-8-yl)quinoline-3-carboxamide, TFA]
[1]
  IC50: 1000 to 10000 nM

## C[C@@H]1CN(c2c(C(=O)N3CCN(C(=O)C4CC4)CC3)cnc3ccc(F)cc23)C[C@H](C)O1 [Example 60, (4-(cyclopropanecarbonyl)piperazin-1-yl)(44(2S*,6R*)-2,6-dimethylmorpholino)-6-fluoroquinolin-3-yl)methanone]
[1]
  IC50: > 10000 nM

## COc1ccc2ncc(C(=O)N3CCN(C(=O)C4CC4)CC3)c(NC3CCN(C)CC3)c2c1 [Example 21, (4-(cyclopropanecarbonyl)piperazin-1-yl)(6-methoxy-4-((1-methylpiperidin-4-yl)amino)quinolin-3-yl)methanone, TFA]
[1]
  IC50: > 10000 nM

## COc1ccc2ncc(C(=O)N3CCN(C(=O)C4CC4)CC3)c(N3CCN(c4ccncc4)CC3)c2c1 [Example 20, (4-(cyclopropanecarbonyl)piperazin-1-yl)(6-methoxy-4-(4-(pyridin-4-yl)piperazin-1-yl)quinolin-3-yl)methanone, TFA]
[1]
  IC50: > 10000 nM

## COc1ccc2ncc(C(=O)N3CCN(C(=O)C4CC4)CC3)c(NC3CCC3)c2c1 [Example 22, (4-(cyclobutylamino)-6-methoxyquinolin-3-yl)(4-(cyclopropanecarbonyl)piperazin-1-yl)methanone, TFA]
[1]
  IC50: > 10000 nM

## COc1ccc2ncc(C(=O)N3CCN(C(=O)C4CC4)CC3)c(N3C[C@@H](C)O[C@@H](C)C3)c2c1 [Example 34, (4-(cyclopropanecarbonyl)piperazin-1-yl)(44(2S*,6R*)-2,6-dimethylmorpholino)-6-methoxyquinolin-3-yl)methanone]
[1]
  IC50: > 10000 nM
